One experiment concerns the target CDK4 (Homo sapiens (Human), UniProt P11802). In words: In vitro kinase inhibition, luminescence (ADP-Glo) with retinoblastoma substrate. The class given is biochemical. On the technique in general: ADP-Glo turns the ADP formed in a reaction into a luminescent signal.
Another experiment addresses CDK6 (Homo sapiens (Human), UniProt Q00534). In words: biochemical. The class given is biochemical.
In another experiment the target is FMS kinase (Homo sapiens (Human), UniProt P07333). In words: LanthaScreen kinase assay (ATP, fluorescent-PolyGT substrate, TR-FRET). The format is biochemical. Background: In TR-FRET formats the signal depends on donor and acceptor labels being close together.
For another experiment, the system named is MCF-7. In words: Cancer cell proliferation assay, single agent. The format is cell-based. Particulars: Homo sapiens.
A further experiment relates to DU4475. In words: Cancer cell proliferation assay, single agent. The format is cell-based. Particulars: Homo sapiens.
The target in another experiment is PI3Kδ kinase (Homo sapiens (Human), UniProt O00329). The experiment can be described thus: PI3Kδ kinase ADP-Glo assay (Reaction Biology Corporation).
The next experiment has as its target CDK1 (cyclin B) (Homo sapiens (Human), UniProt P06493). In words: Z'-LYTE kinase assay. The class given is biochemical. An excerpt:
The following equations were used for Z′-LYTE™ Screening Assay Data Analysis.

Setting [1] is: MCF7, MCF-7 cells, treated for 24-168 hours, read-out: IC50 (nM) MCF-7.
Setting [2] is: DU-4475, read-out: IC50 (nM) DU4475.
Where [3] appears, read: DU-4475, DU4475 cells, treated for 24-168 hours, read-out: IC50 (nM) DU4475.
Setting [4] is: MCF7, read-out: IC50 (nM) MCF-7.

Like-named read-outs stand apart in the source and are kept apart here. Some results are limits rather than exact numbers.

PI3Kδ kinase, sequence (O00329 whole entry): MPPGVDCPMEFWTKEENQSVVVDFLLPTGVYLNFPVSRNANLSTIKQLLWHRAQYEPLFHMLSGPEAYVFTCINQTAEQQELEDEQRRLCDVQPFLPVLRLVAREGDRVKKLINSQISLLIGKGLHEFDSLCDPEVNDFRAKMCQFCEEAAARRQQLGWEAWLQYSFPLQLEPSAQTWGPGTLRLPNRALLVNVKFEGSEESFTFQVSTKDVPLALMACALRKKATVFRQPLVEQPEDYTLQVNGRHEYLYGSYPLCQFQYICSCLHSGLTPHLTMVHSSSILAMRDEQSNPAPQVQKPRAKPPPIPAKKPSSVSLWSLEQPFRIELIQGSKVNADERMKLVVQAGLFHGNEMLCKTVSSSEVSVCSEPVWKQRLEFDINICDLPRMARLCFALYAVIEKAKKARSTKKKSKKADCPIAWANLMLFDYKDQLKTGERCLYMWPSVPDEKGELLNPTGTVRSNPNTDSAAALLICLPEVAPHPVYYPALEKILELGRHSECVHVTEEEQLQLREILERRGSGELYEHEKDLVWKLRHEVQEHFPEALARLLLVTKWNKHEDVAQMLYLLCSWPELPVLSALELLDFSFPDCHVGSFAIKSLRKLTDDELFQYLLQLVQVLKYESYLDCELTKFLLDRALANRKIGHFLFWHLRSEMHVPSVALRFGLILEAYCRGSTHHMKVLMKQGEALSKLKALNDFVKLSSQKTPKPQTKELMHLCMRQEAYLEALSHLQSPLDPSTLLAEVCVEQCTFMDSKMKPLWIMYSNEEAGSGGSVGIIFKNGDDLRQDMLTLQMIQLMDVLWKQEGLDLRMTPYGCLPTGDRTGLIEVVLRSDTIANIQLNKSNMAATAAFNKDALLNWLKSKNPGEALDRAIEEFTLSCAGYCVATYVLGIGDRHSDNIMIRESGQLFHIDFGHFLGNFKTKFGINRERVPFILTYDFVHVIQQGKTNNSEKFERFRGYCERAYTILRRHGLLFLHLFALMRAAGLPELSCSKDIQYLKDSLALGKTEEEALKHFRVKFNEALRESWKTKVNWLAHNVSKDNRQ
PI3Kδ kinase, sequence (P27986 whole entry partner): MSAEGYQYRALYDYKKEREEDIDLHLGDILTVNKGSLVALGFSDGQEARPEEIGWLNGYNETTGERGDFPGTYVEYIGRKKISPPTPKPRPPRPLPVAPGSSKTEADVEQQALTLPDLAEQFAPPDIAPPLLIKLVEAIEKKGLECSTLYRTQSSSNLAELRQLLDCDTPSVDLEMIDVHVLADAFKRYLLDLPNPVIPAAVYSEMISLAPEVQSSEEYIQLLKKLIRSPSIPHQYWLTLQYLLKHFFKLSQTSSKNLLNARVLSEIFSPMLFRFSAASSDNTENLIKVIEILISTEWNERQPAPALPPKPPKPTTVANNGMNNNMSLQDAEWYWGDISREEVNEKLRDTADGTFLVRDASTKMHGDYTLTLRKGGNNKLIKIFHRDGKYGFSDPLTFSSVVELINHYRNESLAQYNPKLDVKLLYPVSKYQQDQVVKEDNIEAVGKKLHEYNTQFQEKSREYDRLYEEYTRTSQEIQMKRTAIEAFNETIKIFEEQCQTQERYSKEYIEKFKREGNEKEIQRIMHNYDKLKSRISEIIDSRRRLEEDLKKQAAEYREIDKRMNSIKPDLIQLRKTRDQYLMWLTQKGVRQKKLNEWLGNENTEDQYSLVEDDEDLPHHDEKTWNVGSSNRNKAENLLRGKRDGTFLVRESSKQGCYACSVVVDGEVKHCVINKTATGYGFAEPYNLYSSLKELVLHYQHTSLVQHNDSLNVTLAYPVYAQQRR
FMS kinase, sequence (P07333 20-972): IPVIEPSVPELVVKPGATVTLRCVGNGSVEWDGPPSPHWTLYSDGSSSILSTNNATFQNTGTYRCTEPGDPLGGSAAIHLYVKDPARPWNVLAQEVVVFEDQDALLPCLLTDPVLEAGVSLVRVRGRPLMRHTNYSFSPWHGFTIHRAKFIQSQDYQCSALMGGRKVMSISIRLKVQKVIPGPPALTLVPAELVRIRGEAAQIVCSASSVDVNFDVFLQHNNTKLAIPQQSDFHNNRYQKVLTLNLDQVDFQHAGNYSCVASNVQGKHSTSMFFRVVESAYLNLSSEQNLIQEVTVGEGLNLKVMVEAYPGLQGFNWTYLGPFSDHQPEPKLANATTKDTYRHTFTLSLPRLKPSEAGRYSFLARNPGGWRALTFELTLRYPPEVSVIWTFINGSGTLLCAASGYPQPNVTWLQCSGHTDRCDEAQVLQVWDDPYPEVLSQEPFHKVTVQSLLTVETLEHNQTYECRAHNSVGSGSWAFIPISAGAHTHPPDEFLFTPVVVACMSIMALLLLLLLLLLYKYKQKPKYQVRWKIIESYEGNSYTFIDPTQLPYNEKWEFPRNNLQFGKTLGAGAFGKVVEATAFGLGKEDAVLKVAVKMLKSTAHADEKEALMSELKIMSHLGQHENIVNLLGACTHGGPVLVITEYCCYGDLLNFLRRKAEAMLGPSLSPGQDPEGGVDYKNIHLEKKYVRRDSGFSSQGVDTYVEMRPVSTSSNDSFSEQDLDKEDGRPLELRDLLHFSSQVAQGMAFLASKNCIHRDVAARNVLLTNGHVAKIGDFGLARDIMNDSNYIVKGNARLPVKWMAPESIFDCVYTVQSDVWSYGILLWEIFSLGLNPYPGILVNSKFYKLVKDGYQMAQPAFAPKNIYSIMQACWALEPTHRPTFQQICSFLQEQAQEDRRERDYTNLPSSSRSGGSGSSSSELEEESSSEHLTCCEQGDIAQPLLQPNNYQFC
CDK4, sequence (P11802 whole entry): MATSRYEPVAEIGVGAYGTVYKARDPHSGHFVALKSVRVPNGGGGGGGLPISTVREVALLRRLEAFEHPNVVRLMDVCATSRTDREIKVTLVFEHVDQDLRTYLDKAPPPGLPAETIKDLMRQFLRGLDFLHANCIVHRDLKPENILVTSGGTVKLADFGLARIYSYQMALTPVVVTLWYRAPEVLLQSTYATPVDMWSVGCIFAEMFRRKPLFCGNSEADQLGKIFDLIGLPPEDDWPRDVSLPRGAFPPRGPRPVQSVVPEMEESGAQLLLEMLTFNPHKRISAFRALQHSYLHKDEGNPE
CDK4, sequence (P24385 whole entry partner): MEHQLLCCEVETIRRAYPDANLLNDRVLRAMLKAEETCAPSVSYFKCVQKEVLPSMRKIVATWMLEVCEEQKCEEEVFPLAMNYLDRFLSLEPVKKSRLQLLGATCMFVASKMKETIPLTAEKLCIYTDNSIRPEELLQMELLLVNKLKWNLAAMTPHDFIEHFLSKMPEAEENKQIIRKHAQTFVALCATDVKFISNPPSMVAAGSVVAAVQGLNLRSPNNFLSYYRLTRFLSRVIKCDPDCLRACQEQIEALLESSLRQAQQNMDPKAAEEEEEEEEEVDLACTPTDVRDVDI
CDK1 (cyclin B), sequence (P06493 whole entry): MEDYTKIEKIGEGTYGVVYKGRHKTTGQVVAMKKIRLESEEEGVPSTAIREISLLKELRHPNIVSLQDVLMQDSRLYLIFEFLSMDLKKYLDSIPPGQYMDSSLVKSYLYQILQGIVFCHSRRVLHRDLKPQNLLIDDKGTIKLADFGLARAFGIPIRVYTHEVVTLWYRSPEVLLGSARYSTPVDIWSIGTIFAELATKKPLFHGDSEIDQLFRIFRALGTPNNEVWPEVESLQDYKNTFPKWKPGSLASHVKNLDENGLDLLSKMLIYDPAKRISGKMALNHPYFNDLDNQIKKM
CDK1 (cyclin B), sequence (P14635 whole entry partner): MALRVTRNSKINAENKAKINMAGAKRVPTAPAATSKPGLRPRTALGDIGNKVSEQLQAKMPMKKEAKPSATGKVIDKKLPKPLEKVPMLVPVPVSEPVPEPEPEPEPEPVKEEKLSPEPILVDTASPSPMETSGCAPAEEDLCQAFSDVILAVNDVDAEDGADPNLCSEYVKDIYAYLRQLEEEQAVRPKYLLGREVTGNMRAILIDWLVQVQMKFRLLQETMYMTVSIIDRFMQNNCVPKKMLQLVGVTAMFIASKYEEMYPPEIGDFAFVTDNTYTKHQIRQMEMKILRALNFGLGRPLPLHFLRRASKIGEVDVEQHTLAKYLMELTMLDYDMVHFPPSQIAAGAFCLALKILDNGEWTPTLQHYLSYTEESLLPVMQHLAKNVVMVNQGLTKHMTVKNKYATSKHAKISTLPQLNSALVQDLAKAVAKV

Turning to `CC(C)CN1CCOc2c(F)cc(-c3nc(Nc4ccc(N5CCOCC5)cn4)ncc3F)cc21` [Compound 489, 5-fluoro-4-(8-fluoro-4-isobutyl-3,4-dihydro-2H-benzo[b][1,4]oxazin-6-yl)-N-(5-morpholinopyridin-2-yl)pyrimidin-2-amine], the IC50 (as a rule, the concentration at which inhibition is half-maximal) at CDK4 was 90 nM; against CDK6, 159 nM; on FMS kinase, over 5000 nM; in the experiment with MCF-7 (setting [1]), 1820 nM; with DU4475 (setting [2]), 4500 nM; on PI3Kδ kinase (read-out: PI3Kδ IC50), over 50000 nM.

Take `CC(C)N1CCOc2c(F)cc(-c3nc(Nc4ccc(N5CCC(CO)CC5)cn4)ncc3F)cc21` [Compound 485, (1-(6-((5-fluoro-4-(8-fluoro-4-isopropyl-3,4-dihydro-2H-benzo[b][1,4]oxazin-6-yl)pyrimidin-2-yl)amino)pyridin-3-yl)piperidin-4-yl)methanol]: the IC50 is 3250 nM against FMS kinase, 470 nM with MCF-7 (setting [1]), 555 nM in the experiment on DU4475 (setting [3]) and over 50000 nM at PI3Kδ kinase (read-out: PI3Kδ IC50).

In the case of `CC(C)N1CCOc2c(F)cc(-c3nc(Nc4ccc(N5CCN6CCCC6C5)c(F)c4)ncc3F)cc21` (stereo not shown) [Compound 473, 5-fluoro-N-(3-fluoro-4-(hexahydropyrrolo[1,2-a]pyrazin-2(1H)-yl)phenyl)-4-(8-fluoro-4-isopropyl-3,4-dihydro-2H-benzo[b][1,4]oxazin-6-yl)pyrimidin-2-amine], the IC50 worked out at 7 nM on FMS kinase, 30 nM in the experiment with MCF-7 (setting [1]), 55 nM in the experiment on DU4475 (setting [3]) and 3170 nM at PI3Kδ kinase (read-out: PI3Kδ IC50).

For the molecule `CN1CCC(c2ccc(Nc3ncc(F)c(-c4cc(F)c5c(c4)N(C4CCCC4)CCO5)n3)cc2F)CC1` [Compound 471, 4-(4-cyclopentyl-8-fluoro-3,4-dihydro-2H-benzo[b][1,4]oxazin-6-yl)-5-fluoro-N-(3-fluoro-4-(1-methylpiperidin-4-yl)phenyl)pyrimidin-2-amine], the IC50 against CDK4 came to 10 nM; at CDK6, 53 nM; on FMS kinase, 454 nM; with MCF-7 (setting [4]) it was 45 nM; with DU4475 (setting [2]), 110 nM; at PI3Kδ kinase (read-out: PI3Kδ IC50) it was 1990 nM.

`CC(C)N1CCOc2c(F)cc(-c3nc(Nc4ccc(N5CCC(C)(O)CC5)cn4)ncc3F)cc21` [Compound 484, 1-(6-((5-fluoro-4-(8-fluoro-4-isopropyl-3,4-dihydro-2H-benzo[b][1,4]oxazin-6-yl)pyrimidin-2-yl)amino)pyridin-3-yl)-4-methylpiperidin-4-ol]: the IC50 is over 5000 nM on FMS kinase, 1340 nM in the experiment on MCF-7 (setting [1]), 2480 nM in the experiment with DU4475 (setting [3]) and over 50000 nM at PI3Kδ kinase (read-out: PI3Kδ IC50).

Regarding `CC(C)N1CCOc2c(F)cc(-c3nc(Nc4cnn(C5CCN(C)CC5)c4)ncc3F)cc21` [Compound 497, 5-fluoro-4-(8-fluoro-4-isopropyl-3,4-dihydro-2H-benzo[b][1,4]oxazin-6-yl)-N-(1-(1-methylpiperidin-4-yl)-1H-pyrazol-4-yl)pyrimidin-2-amine], the IC50 on CDK1 (cyclin B) is 85 nM; in the experiment with MCF-7 (setting [4]), 40 nM; in the experiment with DU4475 (setting [2]) it was 95 nM.

On to `CC(C)CN1CCOc2c(F)cc(-c3nc(Nc4ccc(N5CCC(O)CC5)cn4)ncc3F)cc21` [Compound 488, 1-(6-((5-fluoro-4-(8-fluoro-4-isobutyl-3,4-dihydro-2H-benzo[b][1,4]oxazin-6-yl)pyrimidin-2-yl)amino)pyridin-3-yl)piperidin-4-ol], for which the IC50 at CDK4 is 101 nM; at CDK6, 200 nM; against FMS kinase, over 5000 nM; in the experiment with MCF-7 (setting [4]), 830 nM; in the experiment on DU4475 (setting [2]) it was 2560 nM; at PI3Kδ kinase (read-out: PI3Kδ IC50), over 50000 nM.

Take `Fc1cnc(Nc2ccc(N3CCOCC3)cn2)nc1-c1cc(F)c2c(c1)N(C1CCC1)CCO2` [Compound 487, 4-(4-cyclobutyl-8-fluoro-3,4-dihydro-2H-benzo[b][1,4]oxazin-6-yl)-5-fluoro-N-(5-morpholinopyridin-2-yl)pyrimidin-2-amine]: the IC50 on CDK4 is 55 nM; against CDK6, 112 nM; on FMS kinase, over 5000 nM; with MCF-7 (setting [4]), 615 nM; in the experiment with DU4475 (setting [2]), 2170 nM; on PI3Kδ kinase (read-out: PI3Kδ IC50), over 50000 nM.

Take `CC(C)CN1CCOc2c(F)cc(-c3nc(Nc4ccc(C5CCN(C)CC5)c(F)c4)ncc3F)cc21` [Compound 476, 5-fluoro-N-(3-fluoro-4-(1-methylpiperidin-4-yl)phenyl)-4-(8-fluoro-4-isobutyl-3,4-dihydro-2H-benzo[b][1,4]oxazin-6-yl)pyrimidin-2-amine]: the IC50 at CDK4 was 4 nM; against CDK6, 25 nM; on FMS kinase, 174 nM; in the experiment with MCF-7 (setting [1]), 65 nM; in the experiment on DU4475 (setting [2]), 135 nM; at PI3Kδ kinase (read-out: PI3Kδ IC50), 703 nM.

With `CC(C)CN1CCOc2c(F)cc(-c3nc(Nc4ccc(N5CCC(N(C)C)CC5)c(F)c4)ncc3F)cc21` [Compound 480, N-(4-(4-(dimethylamino)piperidin-1-yl)-3-fluorophenyl)-5-fluoro-4-(8-fluoro-4-isobutyl-3,4-dihydro-2H-benzo[b][1,4]oxazin-6-yl)pyrimidin-2-amine], the IC50 against CDK4 is 5.5 nM; against CDK6, 14 nM; at FMS kinase, 82 nM; in the experiment on MCF-7 (setting [4]), 190 nM; in the experiment on DU4475 (setting [2]) it was 435 nM; on PI3Kδ kinase (read-out: PI3Kδ IC50), 1160 nM.

`CC(C)N1CCOc2c(F)cc(-c3nc(Nc4ccc(N5CCN(C)CC5=O)cn4)ncc3F)cc21` [Compound 472, 1-(6-((5-fluoro-4-(8-fluoro-4-isopropyl-3,4-dihydro-2H-benzo[b][1,4]oxazin-6-yl)pyrimidin-2-yl)amino)pyridin-3-yl)-4-methylpiperazin-2-one]: the IC50 at CDK4 was 2.5 nM; in the experiment with MCF-7 (setting [4]), 30 nM; in the experiment on DU4475 (setting [2]), 570 nM; on PI3Kδ kinase it was 29100 nM.

For the molecule `CC(C)N1CCOc2c(F)cc(-c3nc(Nc4ccc(N5CCC(CCO)CC5)cn4)ncc3F)cc21` [Compound 491, 2-(1-(6-((5-fluoro-4-(8-fluoro-4-isopropyl-3,4-dihydro-2H-benzo[b][1,4]oxazin-6-yl)pyrimidin-2-yl)amino)pyridin-3-yl)piperidin-4-yl)ethan-1-ol], the IC50 against FMS kinase is 4590 nM; in the experiment with MCF-7 (setting [1]), 465 nM; in the experiment with DU4475 (setting [3]), 450 nM; on PI3Kδ kinase (read-out: PI3Kδ IC50), over 50000 nM.

For the molecule `CC(=O)N1CCN(c2ccc(Nc3ncc(F)c(-c4cc(F)c5c(c4)N(C(C)C)CCO5)n3)nc2)CC1` [Compound 474, 1-(4-(6-((5-fluoro-4-(8-fluoro-4-isopropyl-3,4-dihydro-2H-benzo[b][1,4]oxazin-6-yl)pyrimidin-2-yl)amino)pyridin-3-yl)piperazin-1-yl)ethan-1-one], the IC50 stood at 776 nM against FMS kinase, 300 nM in the experiment with MCF-7 (setting [1]), 940 nM with DU4475 (setting [3]) and 1160 nM at PI3Kδ kinase (read-out: PI3Kδ IC50).

Turning to `CC(C)N1CCOc2c(F)cc(-c3nc(Nc4cnn(C5CCC(O)CC5)c4)ncc3F)cc21` (stereo not shown) [Compound 452, 4-(4-((5-fluoro-4-(8-fluoro-4-isopropyl-3,4-dihydro-2H-benzo[b][1,4]oxazin-6-yl)pyrimidin-2-yl)amino)-1H-pyrazol-1-yl)cyclohexan-1-ol], the IC50 against CDK4 was 20 nM; on CDK6, 45 nM; on FMS kinase, 8 nM; with MCF-7 (setting [1]), 50 nM; on PI3Kδ kinase (read-out: PI3Kδ IC50), 589 nM.

In the case of `OC1CCN(c2ccc(Nc3ncc(F)c(-c4cc(F)c5c(c4)N(C4CCC4)CCO5)n3)nc2)CC1` [Compound 486, 1-(6-((4-(4-cyclobutyl-8-fluoro-3,4-dihydro-2H-benzo[b][1,4]oxazin-6-yl)-5-fluoropyrimidin-2-yl)amino)pyridin-3-yl)piperidin-4-ol], the IC50 against CDK4 was 16 nM; against CDK6, 41 nM; on FMS kinase, over 5000 nM; in the experiment with MCF-7 (setting [4]), 325 nM; with DU4475 (setting [2]) it was 1450 nM; at PI3Kδ kinase (read-out: PI3Kδ IC50), over 50000 nM.

With `CC(C)N1CCOc2c(F)cc(-c3nc(Nc4ccc(N5CCN(C(=O)CN(C)C)CC5)c(F)c4)ncc3F)cc21` [Compound 449, 2-(dimethylamino)-1-(4-(2-fluoro-4-((5-fluoro-4-(8-fluoro-4-isopropyl-3,4-dihydro-2H-benzo[b][1,4]oxazin-6-yl)pyrimidin-2-yl)amino)phenyl)piperazin-1-yl)ethan-1-one], the IC50 against CDK4 stood at 1.1 nM; against CDK6, 0.9 nM; at FMS kinase, 9.5 nM; in the experiment on MCF-7 (setting [1]) it was 50 nM; at PI3Kδ kinase (read-out: PI3Kδ IC50), 4480 nM.

For the molecule `CC(C)N1CCOc2c(F)cc(-c3nc(Nc4ccc(C5CCN(C(=O)N(C)C)CC5)cn4)ncc3F)cc21` [Compound 454, 4-(6-((5-fluoro-4-(8-fluoro-4-isopropyl-3,4-dihydro-2H-benzo[b][1,4]oxazin-6-yl)pyrimidin-2-yl)amino)pyridin-3-yl)-N,N-dimethylpiperidine-1-carboxamide], the IC50 against CDK4 was 18 nM; on CDK6, 83 nM; against FMS kinase it was over 5000 nM; in the experiment on MCF-7 (setting [1]) it was 920 nM; at PI3Kδ kinase (read-out: PI3Kδ IC50) it was over 50000 nM.

Take `CC(C)N1CCOc2c(F)cc(-c3nc(Nc4ccc(N5CCN(CCO)CC5)cn4)ncc3F)cc21` [Compound 490, 2-(4-(6-((5-fluoro-4-(8-fluoro-4-isopropyl-3,4-dihydro-2H-benzo[b][1,4]oxazin-6-yl)pyrimidin-2-yl)amino)pyridin-3-yl)piperazin-1-yl)ethan-1-ol]: the IC50 was 2120 nM at FMS kinase, 80 nM in the experiment with MCF-7 (setting [1]), 420 nM in the experiment with DU4475 (setting [2]) and over 50000 nM on PI3Kδ kinase (read-out: PI3Kδ IC50).

The values are drawn from US11174252B2, “Heterocyclic compounds as kinase inhibitors” (priority 2018, dated 2021).
